According to US20150239905A1, “IMIDAZOPYRIDINE COMPOUNDS” (Proximagen Limited, priority 2008, published 2015):

What follows are molecules tested against T1, purified recombinantly expressed human SSAO (Homo sapiens, UniProt Q16853) (assay: SSAO enzyme inhibition assay (benzylamine substrate; hydrogen peroxide/HRP-coupled or 14C-benzaldehyde detection)). Conditions: human recombinant SSAO, benzylamine as substrate, rt.
T1 construct: made in house
T1 sequence (Q16853 29-763 limits assumed): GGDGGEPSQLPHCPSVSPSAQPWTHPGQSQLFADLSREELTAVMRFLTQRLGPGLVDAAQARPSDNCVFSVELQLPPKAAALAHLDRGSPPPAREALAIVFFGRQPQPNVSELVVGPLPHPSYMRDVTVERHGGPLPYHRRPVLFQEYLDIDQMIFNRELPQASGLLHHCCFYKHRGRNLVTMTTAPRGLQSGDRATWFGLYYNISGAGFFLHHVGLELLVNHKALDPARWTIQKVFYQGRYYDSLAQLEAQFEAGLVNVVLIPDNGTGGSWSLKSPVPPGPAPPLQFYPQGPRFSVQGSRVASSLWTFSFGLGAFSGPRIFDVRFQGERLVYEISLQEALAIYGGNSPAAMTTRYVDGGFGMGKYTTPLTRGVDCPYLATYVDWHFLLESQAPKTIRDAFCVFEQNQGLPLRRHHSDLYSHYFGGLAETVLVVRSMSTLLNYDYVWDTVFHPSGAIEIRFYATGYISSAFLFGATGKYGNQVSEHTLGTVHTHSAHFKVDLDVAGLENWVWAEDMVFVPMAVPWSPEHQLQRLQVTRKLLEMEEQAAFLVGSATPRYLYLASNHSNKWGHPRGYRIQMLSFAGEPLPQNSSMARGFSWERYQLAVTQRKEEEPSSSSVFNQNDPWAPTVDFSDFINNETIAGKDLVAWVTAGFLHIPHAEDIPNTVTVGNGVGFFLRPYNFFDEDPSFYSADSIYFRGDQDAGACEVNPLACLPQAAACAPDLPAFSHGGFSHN
Assay type: biochemical
Experimental: All primary assays were performed in rt with purified recombinantly expressed human SSAO. Enzyme was prepared essentially as described in Öhman et al. (Protein Expression and Purification 46 (2006) 321-331). In addition, secondary- and selectivity assays were performed using SSAO prepared from various tissues or purified rat recombinant SSAO. The enzyme activity was assayed with benzylamine as substrate by measuring either benzaldehyde production, using ^14C-labeled substrate, or by utilizing the production of hydrogen peroxide in a horseradish peroxidise (HRP) coupled reaction. Briefly, test compounds were dissolved in dimethyl sulfoxide (DMSO) to a concentration of 10 mM. Dose-response measurements were assayed by either creating 1:10 serial dilutions in DMSO to produce a 7 point curve or by making 1:3 serial dilutions in DMSO to produce 11 point curves. The top concentrations were adjusted depending on the potency of the compounds and subsequent dilution in reaction buffer yielded a final DMSO concentration≦2%.
In a horseradish peroxidise (HRP) coupled reaction, hydrogen peroxide oxidation of 10-acetyl-3,7-dihydroxyphenoxazine produced resorufin, which is a highly fluorescent compound (Zhout and Panchuk-Voloshina. Analytical Biochemistry 253 (1997) 169-174; Amplex® Red Hydrogen Peroxide/peroxidise Assay kit, Invitrogen A22188). Enzyme and compounds in 50 mM sodium phosphate, pH 7.4 were set to pre-incubate in flat-bottomed microtiter plates for approximately 15 minutes before initiating the reaction by addition of a mixture of HRP, benzylamine and Amplex reagent. Benzylamine concentration was fixed at a concentration corresponding to the Michaelis constant, determined using standard procedures. Fluorescence intensity was then measured at several time points during 1-2 hours, exciting at 544 nm and reading the emission at 590 nm. For the human SSAO assay final concentrations of the reagents in the assay wells were: SSAO enzyme […], benzylamine 100 μM, Amplex reagent 20 μM, HRP 0.1 U/mL and varying concentrations of test compound. The inhibition was measured as % decrease of the signal compared to a control without inhibitor (only diluted DMSO). The background signal from a sample containing no SSAO enzyme was subtracted from all data points. Data was fitted to a four parameter logistic model and IC50 values were calculated using the GraphPad Prism 4 or XLfit 4 programs.
SSAO activity was assayed using 14C-labeled benzylamine and analysed by measuring radioactive benzaldehyde. […] Phase separation occurred instantly and activity was read in a Topcount scintillation counter (Perkin-Elmer). […] Data was analysed as above.

Structure (SMILES)	IC50 [nM]
OCc1c(-c2ccc(Br)cc2)nc2ccc(C(F)(F)F)cn12 [Example 23, [2-(4-Bromophenyl)-6-(trifluoromethyl)imidazo[1,2-a]pyridin-3-yl]methanol]	88
CC(O)c1cn2c(CO)c(-c3ccc(Cl)cc3)nc2s1 (stereo not shown) [Example 106, 1-[6-(4-Chlorophenyl)-5-(hydroxymethyl)imidazo[2,1-b][1,3]thiazol-2-yl]ethanol]	89
O=C(c1ccc2nc(-c3ccc(Cl)cc3)c(CO)n2c1)N1CCC(CO)CC1 [Example 62, (1-{[2-(4-Chlorophenyl)-3-(hydroxymethyl)imidazo[1,2-a]pyridin-6-yl]carbonyl}piperidin-4-yl)methanol]	155
COc1cccc(-c2nc3cnc(Br)cn3c2CO)c1 [Example 81, [6-Bromo-2-(3-methoxyphenyl)imidazo[1,2-a]pyrazin-3-yl]methanol]	248
